Assay results taken from patent publication EP0432677B1, “N-(pyrrolo[2,3-d]pyrimidin-3-ylacyl)-glutamic acid derivatives” (THE TRUSTEES OF PRINCETON UNIVERSITY, priority 1989, dated 1991).
In brackets after ≈: the same amount, converted by molar mass. Entries after “also recorded” stand apart in the source; their conditions may differ.

Tests used:
[1] = test system: CCRF-CEM; assay: Reversal of cytotoxicity by added metabolites (hypoxanthine, AICA, thymidine, leucovorin); format: cell-based, human
[2] = test system: CCRF-CEM; assay: Representative inhibition values against CCRF-CEM cell cultures; format: cell-based; details: Homo sapiens
[3] = test system: tumor cells; assay: In vivo antitumor activity in mice inoculated with tumor cells, eight daily i.p. doses; set-up: species or system strain DBA/2; details: for % Inhibition / Tumor Weight: eight daily doses; for Tumor Weight: mean ± standard deviation; for inhibitory effect on tumor growth in vivo: overall assessment in words
Method: Female mice, strain DBA/2, were inoculated with tumor cells. Treatment with the test compounds began the day following inoculation. The treatment consisted of eight daily doses i.p. (intraperitoneal) of either Compounds A and C for eight consecutive days. Tumor size was measured on the day following the last day of treatment to determine the inhibitory effect of the test compounds on tumor growth.

[4] = test system: Cem human lymphoblastic leukemia cells; assay: Inhibition of growth of Cem human lymphoblastic leukemia cells, 72 hours incubation, Coulter Counter particle count (Example 11); format: cell-based; details: for activity at 0.015 µg/mL: concentration 0.015 µg/ml; for activity at 0.045 µg/mL: concentration 0.045 µg/ml; for activity at 0.137 µg/mL: concentration 0.137 µg/ml; for activity at 0.411 µg/mL: concentration 0.411 µg/ml; for activity at 1.23 µg/mL: concentration 1.23 µg/ml; for activity at 3.7 µg/mL: concentration 3.7 µg/ml; for activity at 11.1 µg/mL: concentration 11.1 µg/ml; for activity at 33.3 µg/mL: concentration 33.3 µg/ml; for activity at 100 µg/mL: concentration 100.0 µg/ml; for IC50: concentration inhibiting 50% of cellular growth, read-out: relative overall in vitro inhibitory concentration (IC50)
Method: Each of the compounds was dissolved in 100% dimethylsulfoxide. Dilutions of each compound were prepared to yield a range of test concentrations as hereinafter indicated.
Cem human lymphoblastic leukemia cells are grown in RPMI 1640 media (MABio), supplemented with 10% dialyzed fetal bovine serum (Gibco) at 37°C in humidified atmospheric conditions of 95% air and 5% CO₂. The cells are grown in static suspension (T-flask, Corning) maintained in log phase at a concentration of 3-7 x 10⁵ cells/ml.
(i) 10 µl of a test compound is placed in a well (Costar 24 well clusters). This step is repeated for each test concentration of the compounds. (ii) 500 µl of serum-free media is added to each well. (iii) A sterile bottle containing RPMI 1640 media supplemented with 10% dialyzed fetal bovine serum, 16 mM hepes and 8 mM mops buffers and 3 x 10⁴ cells/ml is placed on a magnetic stirrer. A Wheaton peristaltic pump is used to deliver 1.5 ml of this cell suspension to each well. The resulting final volume delivered to each well is 2.0 ml at a cellular concentration of […]. (iv) The cluster wells are incubated at 37°C in a humidified incubator (95% air, 5% CO₂) for 72 hours. (v) After the incubation period, measurements of each well are taken using the ZB1 Coulter Counter particle counter and the IC₅₀ (concentration inhibiting 50% of cellular growth) is determined. (vi) The results of this test are as follows: Table I

[5] = test system: Cem human lymphoblastic leukemia cells; assay: Reversal studies to identify the point of enzymatic inhibition (Example 11); format: cell-based; details: from reversal with 100 µM hypoxanthine and/or 5 µM thymidine
Method: The mechanism of action of each compound was determined through further tests employing so-called "reversal" studies. These studies supplied compounds or precursors which, alone or together, identified the specific point of enzymatic inhibition. • (a) Hypoxanthine - Hypoxanthine will reverse the inhibitory effects of a compound if the compound functions as an inhibitor of purine de novo synthesis. The availability of hypoxanthine thus allows cells to bypass purine de novo synthesis. • (b) Thymidine - Thymidine alone will reverse the inhibitory effects of a compound if the compound functions as a specific inhibitor of thymidylate synthetase. • (c) Hypoxanthine and Thymidine - If a compound is determined in (a) to not be an inhibitor of purine de novo synthesis, and in (b) to not be an inhibitor of thymidilate synthetase, then a reversal study utilizing hypoxanthine and thymidine, in combination, will determine whether the compound can produce inhibition of both pathways. Thus if this combination reverses the inhibitory effects of a compound, the compound most likely functions as an inhibitor of dihydrofolate reductase (involved in both purine and pyrimidine biosynthesis).
In each case, the basic procedure outlined above was followed, modified in that 250 µl of the reversal compound [or of each reversal compound in […]] was added to the test wells, and the amount of serumless media added to each test well was decreased [or entirely eliminated in (b)] by the same amount. The reversal compounds were prepared as 8X stock solutions in phosphate buffered saline (sterile filtered through a 0.2 µ acrodisc filter - Gelman) so that 250 µl of the stock solution would yield a final concentration of 100 µM hypoxanthine and/or 5 µM thymidine.

[6] = Table VI Run 1, dose 12.50 mg/kg i.p.
[7] = Table VI Run 1, dose 25.00 mg/kg i.p.
[8] = Table VI Run 1, dose 50.00 mg/kg i.p.
[9] = Table VI Run 1, dose 100.00 mg/kg i.p.
[10] = Table VI Run 1, dose 200.00 mg/kg i.p.
[11] = Table VI Run 2, dose 0.6256 mg/kg i.p.
[12] = Table VI Run 2, dose 1.25 mg/kg i.p.
[13] = Table VI Run 2, dose 5 mg/kg i.p.
[14] = Table VI Run 2, dose 10 mg/kg i.p.
[15] = Table VI Run 2, dose 20 mg/kg i.p.
[16] = Table VI Run 2, dose 40 mg/kg i.p.
[17] = Homo sapiens, CCRF-CEM, 72 hours, read-out: Cellular Growth (%)
[18] = Homo sapiens, CCRF-CEM, 72 hours

Nc1nc2[nH]cc(CCc3ccc(C(=O)N[C@@H](CCC(=O)O)C(=O)O)cc3)c2c(=O)[nH]1
Cytotoxicity reversed by addition of aminoimidazolecarboxamide (AICA) ([1]; addition of aminoimidazolecarboxamide (AICA)): not reversed | Cytotoxicity reversed by addition of hypoxanthine ([1]; addition of hypoxanthine): not reversed | Cytotoxicity reversed by addition of thymidine ([1]; addition of thymidine): reversed | IC50 [2]: 0.004 µg/mL (≈ 0.00936 µM)

Nc1nc(O)c2c(CCc3ccc(C(=O)N[C@@H](CCC(=O)O)C(=O)O)c(F)c3)c[nH]c2n1
IC50 [2]: 0.008 µg/mL (≈ 0.018 µM)

Nc1nc(O)c2c(CCc3ccc(C(=O)NC(CCC(=O)O)C(=O)O)cc3)c[nH]c2n1 (stereo not drawn) [Compound C]
% Inhibition [3, 6]: 98% | Tumor Weight [3, 6]: 102 ± 166 mg | % Inhibition [3, 7]: 100% | Tumor Weight [3, 7]: 0 ± 0 mg | % Inhibition [3, 8]: 100% | Tumor Weight [3, 8]: 0 ± 0 mg | % Inhibition [3, 9]: 100% | Tumor Weight [3, 9]: 0 ± 0 mg | % Inhibition [3, 10]: 100% | Tumor Weight [3, 10]: 0 ± 0 mg | % Inhibition [3, 11]: 0% | Tumor Weight [3, 11]: 7381 ± 2397 mg | % Inhibition [3, 12]: 0% | Tumor Weight [3, 12]: 6682 ± 2300 mg | Tumor Weight ([3]; Table VI Run 2, dose 2.5 mg/kg i.p.): 2908 ± 1948 mg | % Inhibition [3, 13]: 83% | Tumor Weight [3, 13]: 1034 ± 657 mg | % Inhibition [3, 14]: 97% | Tumor Weight [3, 14]: 196 ± 152 mg | % Inhibition [3, 15]: 100% | Tumor Weight [3, 15]: 18 ± 57 mg | % Inhibition [3, 16]: 100% | Tumor Weight [3, 16]: 0 ± 0 mg | inhibitory effect on tumor growth in vivo [3]: marked in vivo inhibitory effect; also recorded: highly active | activity at 0.005 µg/mL ([4]; Homo sapiens, CCRF-CEM, concentration 0.005 µg/ml, 72 hours, read-out: Cellular Growth (%)): 96% | activity at 0.015 µg/mL [4, 17]: 25% | activity at 0.045 µg/mL [4, 17]: 14% | activity at 0.137 µg/mL [4, 17]: 14% | activity at 0.411 µg/mL [4, 17]: 13% | activity at 1.23 µg/mL [4, 17]: 14% | activity at 3.7 µg/mL [4, 17]: 13% | activity at 11.1 µg/mL [4, 17]: 12% | activity at 33.3 µg/mL [4, 17]: 12% | activity at 100 µg/mL [4, 17]: 14% | IC50 [4, 18]: 0.007 µg/mL (≈ 0.0164 µM) | more active in vitro than Compound A by a factor ([4]; in vitro, relative to Compound A): at least 25 fold | mechanism of action (point of enzymatic inhibition) [5]: appear to inhibit TS

Nc1nc(O)c2c(CCc3ccc(C(=O)O)cc3)c[nH]c2n1
IC50 [2]: > 20 µg/mL

Nc1nc(O)c2c(CCCc3ccc(C(=O)NC(CCC(=O)O)C(=O)O)cc3)c[nH]c2n1 (stereo not drawn) [Compound B]
activity at 0.015 µg/mL [4, 17]: 76.9% | activity at 0.045 µg/mL [4, 17]: 33.5% | activity at 0.137 µg/mL [4, 17]: 17.7% | activity at 0.411 µg/mL [4, 17]: 13% | activity at 1.23 µg/mL [4, 17]: 11.3% | activity at 3.7 µg/mL [4, 17]: 10.4% | activity at 11.1 µg/mL [4, 17]: 9.6% | activity at 33.3 µg/mL [4, 17]: 10.8% | IC50 [4, 18]: 0.03 µg/mL (≈ 0.068 µM) | mechanism of action (point of enzymatic inhibition) [5]: inhibition of DHFR rather than TS

Cc1nc(O)c2c(CCc3ccc(C(=O)N[C@@H](CCC(=O)O)C(=O)O)cc3)c[nH]c2n1 [N-{4-[2-(4-hydroxy-6-methylpyrrolo[2,3-d]pyrimidin-3-yl)ethyl]-benzoyl}-L-glutamic acid]
IC50 [2]: 0.0084 µg/mL (≈ 0.0197 µM)

O=C(O)CC[C@H](NC(=O)c1ccc(CCc2c[nH]c3ncnc(O)c23)cc1)C(=O)O [N-{4-[2-(4-hydroxypyrrolo[2,3-d]pyrimidin-3-yl)ethyl]benzoyl}-L-glutamic acid]
IC50 [2]: 1.2 µg/mL (≈ 2.91 µM)

COc1ccc(CCc2c[nH]c3nc(N)nc(O)c23)cc1 [3-[2-(4-methoxyphenyl)ethyl]-4-hydroxy-6-aminopyrrolo[2,3-d]pyrimidine]
IC50 [2]: > 20 µg/mL

Nc1nc(O)c2c(n1)NCC2CCc1ccc(C(=O)NC(CCC(=O)O)C(=O)O)cc1 (stereo not drawn) [Compound A, reference compound]
% Inhibition ([3]; Table V, dose 3.125 mg/kg i.p.): 0% | Tumor Weight ([3]; Table V, dose 3.125 mg/kg i.p.): 2825 ± 822 mg | % Inhibition ([3]; Table V, dose 6.25 mg/kg i.p.): 0% | Tumor Weight ([3]; Table V, dose 6.25 mg/kg i.p.): 2719 ± 413 mg | % Inhibition ([3]; Table V, dose 12.5 mg/kg i.p.): 0% | Tumor Weight ([3]; Table V, dose 12.5 mg/kg i.p.): 3360 ± 703 mg | % Inhibition ([3]; Table V, dose 25 mg/kg i.p.): 12% | Tumor Weight ([3]; Table V, dose 25 mg/kg i.p.): 2121 ± 410 mg | % Inhibition ([3]; Table V, dose 50 mg/kg i.p.): 19% | Tumor Weight ([3]; Table V, dose 50 mg/kg i.p.): 1935 ± 498 mg | % Inhibition ([3]; Table V, dose 100 mg/kg i.p.): 0% | Tumor Weight ([3]; Table V, dose 100 mg/kg i.p.): 3447 ± 747 mg | % Inhibition ([3]; Table V, dose 200 mg/kg i.p.): 0% | Tumor Weight ([3]; Table V, dose 200 mg/kg i.p.): 2525 ± 694 mg | inhibitory effect on tumor growth in vivo [3]: essentially no inhibitory effect; also recorded: inactive | activity at 0.045 µg/mL [4, 17]: 100% | activity at 0.137 µg/mL [4, 17]: 63.9% | activity at 0.411 µg/mL [4, 17]: 21.5% | activity at 1.23 µg/mL [4, 17]: 16.1% | activity at 3.7 µg/mL [4, 17]: 15.3% | activity at 11.1 µg/mL [4, 17]: 16.2% | activity at 33.3 µg/mL [4, 17]: 15.5% | activity at 100 µg/mL [4, 17]: 13.1% | IC50 [4, 18]: 0.2 µg/mL (≈ 0.466 µM) | mechanism of action (point of enzymatic inhibition) [5]: appear to inhibit TS

Nc1nc(O)c2c(CCc3cccc(F)c3)c[nH]c2n1
IC50 [2]: > 20 µg/mL

Nc1nc(O)c2c(CCc3ccc(C(=O)N[C@@H](CCC(=O)O)C(=O)O)cc3F)c[nH]c2n1
IC50 [2]: 0.019 µg/mL (≈ 0.0427 µM)

Nc1nc(O)c2c(CCc3ccc(C(=O)N[C@@H](CCC(=O)O)C(=O)O)s3)c[nH]c2n1 [N-{5-[2-(4-hydroxy-6-aminopyrrolo[2,3-d]-pyrimidin-3-yl)ethyl]thien-2-ylcarbonyl}-L-glutamic acid]
IC50 [2]: 0.025 µg/mL (≈ 0.0577 µM)
